Experimental data: patent publication US20230346820A1, “METHODS AND COMPOSITIONS FOR THE TREATMENT OF SARS-COV-2” (priority 2020, published 2023)
Structures can show the parent of a compound that is named as a salt. Where two headings read alike, the source gives them in different places.

Columns and labels:
[1] = human, oral; cited from earlier work
in vitro = settings: human
SARS-CoV-2 [2] = assay: Checkerboard synergy study with remdesivir (ZIP model, synergyfinder); assay type: cell-based
SARS-CoV-2 [3] = system: SARS-CoV-2
SARS-CoV-2 [4] = settings: for Calu3 SI CC50/CoV-2 EC50 / EC50: Table 4; for EC50: read-out: Calu-3 CoV-2 EC50, aggregated data, Geomean, n = 3, 48 h
SARS-CoV-2 [5] = assay: microbe, parasite or virus in culture
HeLa-ACE2 cells [6] = assay: cells; assay type: cell-based, human
HeLa-ACE2 cells [7] = system: HeLa-ACE2 cells
[8] = CC50 [μM] (Geomeans, n ≥ 2 except where indicated: *n = 1)
[9] = Table 1, ZIP model, δ>10 synergy, δ<−10 antagonism, between additive
[10] = Severe acute respiratory syndrome coronavirus 2, HeLa-ACE2, 24 h, read-out: CoV-2 EC50 [μM] (Geomeans, n ≥ 2)
[11] = read-out: HeLa-ACE2 Uninfected Tox CC50, Table 4, aggregated data, Geomean, n = 3
[12] = read-out: HeLa-ACE2 CoV-2 EC50, Table 4, aggregated data, Geomean, n = 3
[13] = read-out: Calu-3 Uninfected Tox CC50, Table 4, aggregated data, Geomean, n = 3
[14] = Homo sapiens, HeLa-ACE2, read-out: HeLa-ACE-2 EC50 [μM] (Geomeans, n ≥ 2)
[15] = Severe acute respiratory syndrome coronavirus 2, HeLa-ACE2, read-out: SARS CoV-2 EC50 (μM)

Procedure for Calu-3 cells: To assess cell viability, 2 μL of 50% Cell-Titer Glo (Promega No G7573) diluted in water was added to the cells and luminescence measured on an EnVision Plate Reader (Perkin Elmer).
Data analysis. […] Primary in vitro screen and the host cell cytotoxicity counter screen data were uploaded to Genedata Screener, Version 16.0.3-Standard. […] For the uninfected host cell cytotoxicity counter screens, 40 μM puromycin (Sigma) was used as the positive (inhibitory) control in HeLa-ACE2, HepG2 and HEK293T cells, and 30 μM puromycin (Sigma) was used as the positive (inhibitory) control for Calu-3 cells. For dose response experiments compounds were tested in technical triplicates on different assay plates and dose curves were fitted with the four parameter Hill Equation. Technical replicate data were analyzed using median condensing. Geometric means and geometric standard deviations are reported for compound activities (EC50s and CC50s) obtained in multiple independent biological experiments. […] Geometric means were calculated by computing the logarithm (base 10) of all values, calculating the mean of these logarithms, and taking the antilog of that mean. Geometric standard deviations were computed by taking the standard deviation of the log-transformed individual values and taking the antilog of that standard deviation. The geometric standard deviation is a unitless ratio and reported as ×÷ instead of +/−.

| Molecule | Cmax [1] [µM] | t1/2 [1] | CC50 (in vitro; [8]) [µM] | HeLa-ACE2 CC50/CoV-2 EC50 (SARS-CoV-2 [3]) | EC50 (SARS-CoV-2 [5]; [10]) [µM] | CC50 (in vitro; Uninfected HeLa-ACE2 CC50 (μM)) [µM] | CC50 (HeLa-ACE2 cells [7]; [11]) [µM] | EC50 (SARS-CoV-2 [3]; [12]) [µM] | Calu3 SI CC50/CoV-2 EC50 (SARS-CoV-2 [4]) | EC50 (SARS-CoV-2 [4]) [µM] | CC50 (Calu-3 cells; [13]) [µM] | other results |
| --- | --- | --- | --- | --- | --- | --- | --- | --- | --- | --- | --- | --- |
| CC(C)(C)Cn1c(N)nc2ccc(-c3[nH]c(C(C)(C)C)nc3-c3ccc(F)cc3)nc21 [Ralimetinib mesylate/LY2228820, Ralimetinib mesylate] | ~5 | ~145 h (human, oral)(28) | 27.4 | 14.6 | 1.87 |  |  |  |  |  |  | Synergy score with remdesivir (δ) (SARS-CoV-2 [2]; [9]): −0.846; Synergy score with remdesivir (δ) (SARS-CoV-2 [2]; Table 3): −0.846; activity in HeLa-ACE2 infection assay (SARS-CoV-2 [3]): active; activity in Calu-3 infection assay (SARS-CoV-2 [4]): active |
| COC(=O)[C@H]1[C@H]2C[C@@H]3c4[nH]c5cc(OC)ccc5c4CCN3C[C@H]2C[C@@H](OC(=O)c2cc(OC)c(OC)c(OC)c2)[C@@H]1OC [Reserpine] |  |  |  | >6.60 |  |  |  |  |  |  |  | EC50 (HeLa-ACE2 cells [6]; read-out: HeLa-ACE-2 EC50 [μM] (Geomeans, n ≥ 2)): > 9.6 µM; CC50 (HeLa-ACE2 cells [7]): > 36.4 µM; EC50 (SARS-CoV-2 [3]; read-out: CoV-2 EC50 [μM] (Geomeans, n ≥ 2), Table 1, HeLa-ACE2, 24 h): > 5.51 µM |
| COc1ccc2c(O[C@@H]3C[C@H]4C(=O)N[C@]5(C(=O)NS(=O)(=O)C6CC6)C[C@H]5/C=C\CCCCN(C)C(=O)[C@@H]4C3)cc(-c3nc(C(C)C)cs3)nc2c1C [Simeprevir] | ~32 | ~16 h (human oral)(21, 22) | > 22.2 | >2.81 | > 7.88 | > 22.2 |  |  |  |  |  |  |
| CN(C)CCOc1ccc2c(=O)c3ccc(OCCN(C)C)cc3oc2c1 [TILORINE DIHYDROCHLORIDE] |  |  |  | 11.07 | 0.884 |  |  |  |  |  |  | CC50 (HeLa-ACE2 cells [7]; human): 9.79 µM |
| Nc1nc2[nH]cnc2c(=S)[nH]1 [Tioguanine] |  |  |  |  |  |  | 2.82 | 0.787 | 6.45 | 0.127 |  | HeLa-ACE2 SI CC50/CoV-2 EC50 (SARS-CoV-2 [3]; Table 4): 3.58; CC50 (Calu-3 cells): 0.822 µM |
| CC(CN(C)C)CN1c2ccccc2CCc2ccccc21 (stereo not drawn) [Trimipramine] |  |  |  | 10.11 | 2.11 |  |  |  |  |  |  | CC50 (HeLa-ACE2 cells [7]; human): 21.3 µM |
| CN(C)C(C(=O)Nc1ccc2c(=O)[nH]ccc2c1)c1ccsc1 (stereo not drawn) [Verosudil] |  |  |  |  |  |  | > 39.8 | > 9.59 | 5.39 | 3.51 | 18.9 |  |
| COC(=O)C1=C(C)NC(C)=C(C(=O)OC)C1c1cc([N+](=O)[O-])ccc1OCCCCNC[C@H](O)COc1ccccc1 [YM 161514] |  |  | 11.3 | 6.08 | 1.86 | 11.3 |  |  |  |  |  | EC50 (HeLa-ACE2 cells [6]; [14]): > 8.47 µM; Synergy score with remdesivir (δ) (SARS-CoV-2 [2]; [9]): 0.601; Synergy score with remdesivir (δ) (SARS-CoV-2 [2]; Table 3): 0.60; EC50 (SARS-CoV-2 [5]; [15]): 1.86 µM |
| COC1(c2cc(F)cc(OCc3ccc4c(ccc(=O)n4C)c3)c2)CCOCC1 [ZD 2138] |  |  |  |  |  |  | 28.7 | > 9.59 | 5.18 | 2.79 | 14.4 |  |
| CC(=O)OC[C@H]1O[C@@H]([S-])[C@H](OC(C)=O)[C@@H](OC(C)=O)[C@@H]1OC(C)=O.CCP(CC)CC.[Au+] [auranofin] |  |  |  |  |  |  | 0.634 | 0.988 | 7.87 | 0.525 | 3.13 | HeLa-ACE2 SI CC50/CoV-2 EC50 (SARS-CoV-2 [3]; Table 4): 0.64 |
| COc1ccc2c(c1)CN(C)CC2c1ccc(Cl)c(Cl)c1 (stereo not drawn) [diclofensine] | ~0.03 | ~15 h (human, oral)(25) | 10.1 | <1.28 | > 7.89 | > 40 |  |  |  |  |  | EC50 (HeLa-ACE2 cells [6]; [14]): > 9.59 µM; EC50 (SARS-CoV-2 [5]; [15]): 6.06 µM |
| COC(=O)C1=C(C)NC(C)=C(C(=O)OCCN2CCN(C(c3ccccc3)c3ccccc3)CC2)C1c1cccc([N+](=O)[O-])c1 (stereo not drawn) [manidipine] | ~0.01 | ~3 h (human, oral)(23) | > 17.1 | >2.48 | > 6.89 | > 17.1 |  |  |  |  |  | Synergy score with remdesivir (δ) (SARS-CoV-2 [2]; [9]): −4.727; Synergy score with remdesivir (δ) (SARS-CoV-2 [2]; Table 3): −4.727; EC50 (SARS-CoV-2 [5]; [15]): > 6.89 µM |
| Cc1c(O)cccc1C(=O)N[C@@H](CSc1ccccc1)[C@H](O)CN1C[C@H]2CCCC[C@H]2C[C@H]1C(=O)NC(C)(C)C [nelfinavir mesylate] | ~17 | ~4 h (human oral)(20) | > 18 | >2.08 | > 8.64 | > 18 |  |  |  |  |  | Synergy score with remdesivir (δ) (SARS-CoV-2 [2]; [9]): −1.233 |
| Antimycin A3 |  |  |  |  |  |  | > 39.8 | > 9.59 | 109.64 | 0.036 | 3.9 |  |
| Cloturin |  |  |  |  |  |  | 31.5 | 3.88 | 6.62 | 0.304 | 2.01 | HeLa-ACE2 SI CC50/CoV-2 EC50 (SARS-CoV-2 [3]; Table 4): 8.13 |
